{"source": "patent EP2197279B1", "about": "“C10-SUBSTITUTED CAMPTOTHECIN ANALOGS” (BIONUMERIK PHARMACEUTICALS, INC., priority 2007, dated 2009)", "key": {"[1]": {"test_system": "A2780/WT (wild-type) cells", "test": "Sulforhodamine B (SRB) cytotoxicity assay in A2780/WT cells", "type": "cell-based", "procedure": "(§1) Each of the testing conditions used in this study in both A2780/WT (wild-type) and A2780/DX5 cells were repeated in five to fifteen experiments that were performed on separate days. Each experiment consisted of one microtiter plate with at least eight individual assays of a given drug treatment condition on the plate. The sulforhodamine B (SRB) assay was used to assess cytotoxicity and absorbance at 570 nm (A570) in order to calculate the percentage of cell control (or percent cell survival) for the various treatment conditions in the plate wells.\n(§2) Roswell Park Memorial Institute (RPMI 1640) medium, fetal bovine serum (FBS), and L-glutamine were purchased from Gibco BRL. Drugs were dissolved in sterile dimethylsulfoxide (DMSO), from American Type Culture Collection (ATCC) for stock solutions (2.5 to 5.0 mM). Subsequent dilutions were made using cell culture medium (prior to adding the drug to cells). SRB was purchased from Sigma and dissolved in 1.0% acetic acid. Trichloroacetic acid was purchased from VWR International.\n(§3) Cells were manipulated in a Class IIA/B3 Biological Safety Cabinet (Forma Scientific) and maintained at 37°C in a humidified atmosphere containing 5% CO2 in a water-jacketed cell culture incubator (Forma Scientific). Cells were counted using a Coulter-Zl counter (Beckman-Coulter). Following drug treatment, plates were washed using a Biomek 2000 station (Beckman) and, following exposure to SRB dye, plates were washed using an automated plate washer (Model EL404, Bio-Tek Instruments). Percentage of control was correlated to A570 values and determined using a Model EL800 plate reader (Bio-Tek Instruments).\n(§4) Population doubling times for the two cell lines used in this study encompassed a total of five cell doublings corresponding to approximately 5 days for A2780/WT and A2780/DX5 cells. A2780/WT and A2780/DX5 cells were cultured in RPMI 1640 medium supplemented with 10% fetal bovine serum and 1 mM of L-glutamine. Both cell lines were maintained as monolayered cultures in T-25 or T-75 flasks and then seeded to microtiter plate wells for experiments described herein. Prior to SRB assays, cell viability was monitored by evaluation of microtiter plate wells. Dead cells detach and float while living cells remain attached to the bottom of the cell well.\n(§5) The sulforhodamine B (SRB) cytotoxicity assay (see, Skehan P, et al., New colorimetric cytotoxicity assay for anticancer-drug screening. J. Natl. Cancer Inst. 82: 1107-1112 (1990)) was used to determine the cytotoxic effects of BNP1350, SN-38, topotecan, 9-NH2-CPT, and 9-NO2-CPT on cell growth in vitro. Briefly, after the medium was aspirated from individual plate wells, trichloroacetic acid (100 µL of 10.0% solution) was added to each well, and the plates were incubated at 4°C for at least 1 hour. The plates were washed five-times with water using an automated microplate washer (Model EL 404, Bio-Tek Instruments), SRB solution (100 µL of 0.4 grams SRB dissolved in 100 mL 1.0% acetic acid) was added, and plates remained at room temperature for 15 minutes. The plates were then washed five-times using acetic acid (1.0 percent), air dried, and bound dye was solubilized in Tris base (150 µL, 10 mM). Plates were agitated (gently) for 5 minutes and the absorbance values of the SRB dye-protein adduct at a 570 nm wavelength (A570) were determined using an automated microtiter plate reader equipped with an A570 filter (Model EL800, BioTek Instruments). Table VII. Summary of Cytotoxicity Experiments in A2780/WT and DX5 Cells"}, "[2]": {"test_system": "A2780/DX5 cells", "test": "Sulforhodamine B (SRB) cytotoxicity assay in A2780/DX5 cells", "type": "cell-based", "conditions": "for IC50 Ratio: A2780/DX5 versus A2780/WT; for IC50: SRB assay", "procedure": "as §1, §2, §3, §4, §5"}, "[3]": {"test_system": "human plasma proteins", "test": "Percent of free camptothecin analogs in human plasma (dialysis, HPLC)", "type": "in vitro ADME", "conditions": "100 nM Compound Concentrations", "procedure": "Stocks of various camptothecin analogs were prepared in DMSO. […] Optimum HPLC detection conditions for each camptothecin analog were developed using traditional HPLC methods. Table VIII. Percent of Free Camptothecin Analogs in Human Plasma (100 nM Compound Concentrations)"}, "[4]": {"conditions": "over the first 48 hours, IV camptothecin sodium; cited from earlier work"}, "[5]": {"test_system": "Angiogenesis was induced by fibroblast growth factor", "conditions": "dose levels of 210 mg/kg; cited from earlier work"}, "[6]": {"conditions": "clinical studies in Japan alone; cited from earlier work"}, "[7]": {"conditions": "cited from earlier work"}}}
{"compound": "7-(2'-Trimethylsilanyl) ethyl-10-(4-moroholinecarbonyloxy) camptothecin [Compound 12]", "values": [{"measurement": "IC50", "setting": "[1]", "value": 65.6, "unit": "nM"}, {"measurement": "IC50 Ratio", "setting": "[2]", "value": 2.1}, {"measurement": "IC50", "setting": "[2]", "value": 135, "unit": "nM"}]}
{"compound": "7-(2'-Trimethylsilanyl) ethyl-10-(ethoxycarbonylmethoxyl camptothecin [Compound 9]", "values": [{"measurement": "IC50", "setting": "[1]", "value": 73.9, "unit": "nM"}, {"measurement": "IC50 Ratio", "setting": "[2]", "value": 1.7}, {"measurement": "IC50", "setting": "[2]", "value": 123, "unit": "nM"}]}
{"compound": "CC[C@@]1(O)C(=O)OCc2c1cc1n(c2=O)Cc2cc3ccccc3nc2-1", "note": "[CPT, (S)-4-Ethyl-4-hydroxy-1H-pyrano[3',4':6,7]indolizino[1,2-b]quinoline-3,14(4H,12H)-dione]", "values": [{"measurement": "Percent of Free CPTs", "setting": "[3]", "value": 0, "unit": "%"}, {"measurement": "mean urine recovery of CPT", "setting": "[4]", "value": 17.4, "unit": "%"}]}
{"compound": "CCc1c2c(nc3ccc(OC(=O)N4CCC(N5CCCCC5)CC4)cc13)-c1cc3c(c(=O)n1C2)COC(=O)[C@]3(O)CC", "note": "[CPT-11, 7-ethyl-10-[4-(1-piperidino)-1-piperidino] carbonyloxy camptothecin]", "values": [{"measurement": "neovascularization", "setting": "[5]", "value": "significant reduction of neovascularization"}, {"measurement": "patient deaths directly attributable to drug toxicity", "setting": "[6]", "value": "approximately 100"}]}
{"compound": "CC[C@@]1(O)C(=O)OCc2c1cc1n(c2=O)Cc2c-1nc1ccc(OC)cc1c2CC[Si](C)(C)C", "note": "[Compound 1, 7-(2'-Trimethylsilanyl) ethyl-10-methoxy camptothecin]", "values": [{"measurement": "IC50", "setting": "[1]", "value": 16.8, "unit": "nM"}, {"measurement": "IC50 Ratio", "setting": "[2]", "value": 1.3}, {"measurement": "IC50", "setting": "[2]", "value": 21.9, "unit": "nM"}, {"measurement": "Percent of Free CPTs", "setting": "[3]", "value": 3.5, "unit": "%"}]}
{"compound": "CC[C@@]1(O)C(=O)OCc2c1cc1n(c2=O)Cc2c-1nc1ccc(OCOC)cc1c2CC[Si](C)(C)C", "note": "[Compound 2, 7-(2'-Trimethylsilanyl) ethyl-10-methoxymethoxy camptothecin]", "values": [{"measurement": "IC50", "setting": "[1]", "value": 43.4, "unit": "nM"}, {"measurement": "IC50 Ratio", "setting": "[2]", "value": 1.5}, {"measurement": "IC50", "setting": "[2]", "value": 64.8, "unit": "nM"}]}
{"compound": "CC[C@@]1(O)C(=O)OCc2c1cc1n(c2=O)Cc2c-1nc1ccc(OCCCO)cc1c2CC[Si](C)(C)C", "note": "[Compound 3, 7-(2'-trimethylsilanyl) ethyl-10-(3'-hydroxypropoxy) camptothecin]", "values": [{"measurement": "IC50", "setting": "[1]", "value": 15, "unit": "nM"}, {"measurement": "IC50 Ratio", "setting": "[2]", "value": 2.5}, {"measurement": "IC50", "setting": "[2]", "value": 37.6, "unit": "nM"}, {"measurement": "Percent of Free CPTs", "setting": "[3]", "value": 6.8, "unit": "%"}]}
{"compound": "CC[C@@]1(O)C(=O)OCc2c1cc1n(c2=O)Cc2c-1nc1ccc(OCCOC)cc1c2CC[Si](C)(C)C", "note": "[Compound 4, 7-(2'-Trimethylsilanyl)ethyl-10-(2'-methoxyethoxy) camptothecin]", "values": [{"measurement": "IC50", "setting": "[1]", "value": 70.1, "unit": "nM"}, {"measurement": "IC50 Ratio", "setting": "[2]", "value": 1.0}, {"measurement": "IC50", "setting": "[2]", "value": 70.6, "unit": "nM"}, {"measurement": "Percent of Free CPTs", "setting": "[3]", "value": 6, "unit": "%"}]}
{"compound": "CC[C@@]1(O)C(=O)OCc2c1cc1n(c2=O)Cc2c-1nc1ccc(OC(C)C)cc1c2CC[Si](C)(C)C", "note": "[Compound 5, 7-(2'-Trimethylsilanyl) ethyl-10-isopropoxy camptothecin]", "values": [{"measurement": "IC50", "setting": "[1]", "value": 86.2, "unit": "nM"}, {"measurement": "IC50 Ratio", "setting": "[2]", "value": 1.2}, {"measurement": "IC50", "setting": "[2]", "value": 103, "unit": "nM"}]}
{"compound": "CCOc1ccc2nc3c(c(CC[Si](C)(C)C)c2c1)C(O)n1c-3cc2c(c1=O)COC(=O)[C@]2(O)CC", "note": "(stereo partly drawn) [Compound 6, 5-hydroxy-7-(2'-trimethylsilanyl) ethyl-10-ethoxy camptothecin]", "values": [{"measurement": "IC50", "setting": "[1]", "value": 158, "unit": "nM"}, {"measurement": "IC50 Ratio", "setting": "[2]", "value": 1.1}, {"measurement": "IC50", "setting": "[2]", "value": 168, "unit": "nM"}]}
{"compound": "CC[C@@]1(O)C(=O)OCc2c1cc1n(c2=O)C(O)c2c-1nc1ccc(OCC(N)=O)cc1c2CC[Si](C)(C)C", "note": "(stereo partly drawn) [Compound 7, 5-Hydroxy-7-(2'-trimethylsilanyl) ethyl-10-amidomethoxy camptothecin]", "values": [{"measurement": "IC50", "setting": "[1]", "value": 266, "unit": "nM"}, {"measurement": "IC50", "setting": "[2]", "value": "> 650", "unit": "nM"}]}
{"compound": "CC[C@@]1(O)C(=O)OCc2c1cc1n(c2=O)Cc2c-1nc1ccc(OC(=O)N(C)C)cc1c2CC[Si](C)(C)C", "note": "[Compound 8, 7-(2'-trimethylsilanyl) ethyl-10-(dimethylcarbamoyloxy) camptothecin]", "values": [{"measurement": "IC50", "setting": "[1]", "value": 54.8, "unit": "nM"}, {"measurement": "IC50 Ratio", "setting": "[2]", "value": 1.1}, {"measurement": "IC50", "setting": "[2]", "value": 61.1, "unit": "nM"}, {"measurement": "Percent of Free CPTs", "setting": "[3]", "value": 6.4, "unit": "%"}]}
{"compound": "CC[C@@]1(O)C(=O)OCc2c1cc1n(c2=O)Cc2c-1nc1ccc(OCC(N)=O)cc1c2CC[Si](C)(C)C", "note": "[Compound 10, 7-(2'-Trimethylsilanyl) ethyl-10-(amidomethyloxy) camptothecin]", "values": [{"measurement": "IC50", "setting": "[1]", "value": 34.1, "unit": "nM"}, {"measurement": "IC50 Ratio", "setting": "[2]", "value": 11.8}, {"measurement": "IC50", "setting": "[2]", "value": 401, "unit": "nM"}, {"measurement": "Percent of Free CPTs", "setting": "[3]", "value": 25, "unit": "%"}]}
{"compound": "CC[C@@]1(O)C(=O)OCc2c1cc1n(c2=O)Cc2c-1nc1ccc(OC(=S)N(C)C)cc1c2CC[Si](C)(C)C", "note": "[Compound 13]", "values": [{"measurement": "IC50", "setting": "[1]", "value": 117, "unit": "nM"}, {"measurement": "IC50 Ratio", "setting": "[2]", "value": 2.0}, {"measurement": "IC50", "setting": "[2]", "value": 228, "unit": "nM"}]}
{"compound": "CCOc1ccc2nc3c(c(CC[Si](C)(C)C)c2c1)Cn1c-3cc2c(c1=O)COC(=O)[C@]2(O)CC", "note": "[Compound 14, 7-(2'-Trimethylsilanyl) ethyl-10-ethoxy camptothecin]", "values": [{"measurement": "IC50", "setting": "[1]", "value": 14.1, "unit": "nM"}, {"measurement": "IC50 Ratio", "setting": "[2]", "value": 1.2}, {"measurement": "IC50", "setting": "[2]", "value": 17.2, "unit": "nM"}]}
{"compound": "CC[C@@]1(O)C(=O)OCc2c1cc1n(c2=O)Cc2c-1nc1ccc(OCC#N)cc1c2CC[Si](C)(C)C", "note": "[Compound 15, 7-(2'-Trimethylsilanyl) ethyl-10-cyanomethoxy camptothecin]", "values": [{"measurement": "IC50", "setting": "[1]", "value": 9.6, "unit": "nM"}, {"measurement": "IC50 Ratio", "setting": "[2]", "value": 2.0}, {"measurement": "IC50", "setting": "[2]", "value": 18.9, "unit": "nM"}]}
{"compound": "CCc1c2c(nc3ccc(O)cc13)-c1cc3c(c(=O)n1C2)COC(=O)[C@]3(O)CC", "note": "[SN-38, 10-hydroxy-7-ethyl camptothecin]", "values": [{"measurement": "Percent of Free CPTs", "setting": "[3]", "value": 15, "unit": "%"}]}
{"compound": "CC[C@@]1(O)C(=O)OCc2c1cc1n(c2=O)Cc2cc3c(CN(C)C)c(O)ccc3nc2-1", "note": "[Topotecan, 9-dimethylaminomethyl-10-hydroxy camptothecin]", "values": [{"measurement": "Percent of Free CPTs", "setting": "[3]", "value": 100, "unit": "%"}]}
{"compound": "CC[C@@](O)(C(=O)O)c1cc2n(c(=O)c1CO)Cc1cc3ccccc3nc1-2", "note": "[carboxylate form of CPT]", "values": [{"measurement": "reduction of anti-tumor activity", "setting": "[7]; carboxylate form versus lactone", "value": "at least 10 fold"}, {"measurement": "anti-tumor potency relative to the non-hydrolyzed lactone form of CPT", "setting": "[7]; sodium hydroxide formulation, hydrolysed E-ring", "value": "approximately one-tenth or less"}]}
